Reference: ChEMBL document CHEMBL5096156, “A Review of Progress in Histone Deacetylase 6 Inhibitors Research: Structural Specificity and Functional Diversity” (J Med Chem, 2021)
pIC50: −log10 of the molar value.

Legend:
Histone deacetylase 1 [1] = biological target: T1, Histone deacetylase 1 (Homo sapiens, UniProt Q13547); assay: Inhibition of HDAC1 (unknown origin)
[2] = biological target: T2, Protein deacetylase HDAC6 (Homo sapiens, UniProt Q9UBN7); assay: Inhibition of HDAC6 (unknown origin)
T2 sequence (Q9UBN7 whole entry): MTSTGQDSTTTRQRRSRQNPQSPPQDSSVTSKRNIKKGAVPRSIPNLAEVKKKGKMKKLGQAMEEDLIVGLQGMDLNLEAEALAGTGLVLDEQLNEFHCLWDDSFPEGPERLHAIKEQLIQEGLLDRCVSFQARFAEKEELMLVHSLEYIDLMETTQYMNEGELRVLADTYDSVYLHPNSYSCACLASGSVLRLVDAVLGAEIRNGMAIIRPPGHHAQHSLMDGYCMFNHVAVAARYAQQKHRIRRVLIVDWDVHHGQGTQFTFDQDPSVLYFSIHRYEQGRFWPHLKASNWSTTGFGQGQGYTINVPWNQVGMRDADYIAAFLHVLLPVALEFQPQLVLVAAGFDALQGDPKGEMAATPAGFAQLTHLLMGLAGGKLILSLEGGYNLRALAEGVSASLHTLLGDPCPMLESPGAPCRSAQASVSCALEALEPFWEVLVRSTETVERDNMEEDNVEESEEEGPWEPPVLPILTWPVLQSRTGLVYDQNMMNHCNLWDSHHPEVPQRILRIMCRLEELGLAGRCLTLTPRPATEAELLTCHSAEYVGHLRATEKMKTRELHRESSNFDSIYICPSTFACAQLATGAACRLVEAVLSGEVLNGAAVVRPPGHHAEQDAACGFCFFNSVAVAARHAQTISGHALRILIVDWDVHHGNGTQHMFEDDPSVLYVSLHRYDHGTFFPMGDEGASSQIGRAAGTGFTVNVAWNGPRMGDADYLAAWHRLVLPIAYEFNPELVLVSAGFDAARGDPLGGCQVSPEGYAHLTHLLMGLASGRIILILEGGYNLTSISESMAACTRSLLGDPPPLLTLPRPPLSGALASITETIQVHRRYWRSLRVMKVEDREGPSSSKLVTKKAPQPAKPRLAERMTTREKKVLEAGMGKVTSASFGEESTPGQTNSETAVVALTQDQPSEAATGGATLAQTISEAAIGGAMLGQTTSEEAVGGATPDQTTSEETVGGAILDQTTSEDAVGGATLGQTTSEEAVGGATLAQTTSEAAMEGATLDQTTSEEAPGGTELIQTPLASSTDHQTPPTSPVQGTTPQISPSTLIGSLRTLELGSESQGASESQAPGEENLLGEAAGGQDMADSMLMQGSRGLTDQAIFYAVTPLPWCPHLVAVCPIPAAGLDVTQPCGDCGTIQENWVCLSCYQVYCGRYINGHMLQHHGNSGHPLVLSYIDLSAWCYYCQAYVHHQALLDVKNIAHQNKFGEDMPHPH

[3] = biological target: T2, Protein deacetylase HDAC6; assay: Inhibition of human recombinant HDAC6 using BML-AK511 as substrate incubated for 60 mins by fluorimetric assay
[4] = biological target: T2, Protein deacetylase HDAC6; assay: Inhibition of human recombinant HDAC6 using ZMAL -Z-(Ac)Lys-AMC fluorogenic substrate incubated for 30 mins by microplate reader assay
Histone deacetylase 1 [5] = biological target: T1, Histone deacetylase 1; assay: Inhibition of human recombinant HDAC1 using ZMAL -Z-(Ac)Lys-AMC fluorogenic substrate incubated for 30 mins by microplate reader assay
Histone deacetylase 8 [6] = biological target: T3, Histone deacetylase 8 (Homo sapiens, UniProt Q9BY41); assay: Inhibition of full length human recombinant HDAC8 using RHKKAcKAc-AMC fluorogenic peptide as substrate incubated for 2 hrs by microplate reader assay
T3 sequence (Q9BY41 whole entry): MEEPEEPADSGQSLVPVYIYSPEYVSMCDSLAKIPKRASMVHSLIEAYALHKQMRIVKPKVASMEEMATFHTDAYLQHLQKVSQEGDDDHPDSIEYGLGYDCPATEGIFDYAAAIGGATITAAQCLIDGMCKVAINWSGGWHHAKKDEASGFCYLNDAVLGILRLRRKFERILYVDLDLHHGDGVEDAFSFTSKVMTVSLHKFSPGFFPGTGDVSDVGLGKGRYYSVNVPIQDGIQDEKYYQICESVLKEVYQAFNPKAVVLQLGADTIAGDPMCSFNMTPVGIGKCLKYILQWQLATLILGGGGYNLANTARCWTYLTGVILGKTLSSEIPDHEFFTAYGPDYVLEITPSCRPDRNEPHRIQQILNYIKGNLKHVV

Histone deacetylase 5 = Histone deacetylase 5 (Homo sapiens, UniProt Q9UQL6); assay: Inhibition of full length human recombinant HDAC5 using Ac-LGK(TFA)-AMC fluorogenic peptide as substrate incubated for 2 hrs by microplate reader assay
Histone deacetylase 11 [7] = biological target: T4, Histone deacetylase 11 (Homo sapiens, UniProt Q96DB2); assay: Inhibition of full length human recombinant HDAC11 using RHKKAc-AMC fluorogenic peptide as substrate incubated for 2 hrs by microplate reader assay
T4 sequence (Q96DB2 whole entry): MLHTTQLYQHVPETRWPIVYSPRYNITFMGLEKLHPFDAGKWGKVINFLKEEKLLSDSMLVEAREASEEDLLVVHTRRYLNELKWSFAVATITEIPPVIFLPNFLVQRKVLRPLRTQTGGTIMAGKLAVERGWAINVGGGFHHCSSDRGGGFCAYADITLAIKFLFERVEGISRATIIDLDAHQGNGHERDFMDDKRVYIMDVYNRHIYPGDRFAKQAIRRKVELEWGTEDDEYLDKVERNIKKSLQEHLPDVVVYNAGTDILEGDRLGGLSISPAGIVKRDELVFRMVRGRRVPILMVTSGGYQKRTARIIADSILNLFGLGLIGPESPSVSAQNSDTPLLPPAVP

Histone deacetylase 3 [8] = biological target: T5, Histone deacetylase 3 (Homo sapiens, UniProt O15379)
Histone deacetylase 7 = biological target: T6, Histone deacetylase 7 (Homo sapiens, UniProt Q8WUI4); assay: Inhibition of full length human recombinant HDAC7 using Ac-LGK(TFA)-AMC fluorogenic peptide as substrate incubated for 2 hrs by microplate reader assay
T6 sequence (Q8WUI4 whole entry): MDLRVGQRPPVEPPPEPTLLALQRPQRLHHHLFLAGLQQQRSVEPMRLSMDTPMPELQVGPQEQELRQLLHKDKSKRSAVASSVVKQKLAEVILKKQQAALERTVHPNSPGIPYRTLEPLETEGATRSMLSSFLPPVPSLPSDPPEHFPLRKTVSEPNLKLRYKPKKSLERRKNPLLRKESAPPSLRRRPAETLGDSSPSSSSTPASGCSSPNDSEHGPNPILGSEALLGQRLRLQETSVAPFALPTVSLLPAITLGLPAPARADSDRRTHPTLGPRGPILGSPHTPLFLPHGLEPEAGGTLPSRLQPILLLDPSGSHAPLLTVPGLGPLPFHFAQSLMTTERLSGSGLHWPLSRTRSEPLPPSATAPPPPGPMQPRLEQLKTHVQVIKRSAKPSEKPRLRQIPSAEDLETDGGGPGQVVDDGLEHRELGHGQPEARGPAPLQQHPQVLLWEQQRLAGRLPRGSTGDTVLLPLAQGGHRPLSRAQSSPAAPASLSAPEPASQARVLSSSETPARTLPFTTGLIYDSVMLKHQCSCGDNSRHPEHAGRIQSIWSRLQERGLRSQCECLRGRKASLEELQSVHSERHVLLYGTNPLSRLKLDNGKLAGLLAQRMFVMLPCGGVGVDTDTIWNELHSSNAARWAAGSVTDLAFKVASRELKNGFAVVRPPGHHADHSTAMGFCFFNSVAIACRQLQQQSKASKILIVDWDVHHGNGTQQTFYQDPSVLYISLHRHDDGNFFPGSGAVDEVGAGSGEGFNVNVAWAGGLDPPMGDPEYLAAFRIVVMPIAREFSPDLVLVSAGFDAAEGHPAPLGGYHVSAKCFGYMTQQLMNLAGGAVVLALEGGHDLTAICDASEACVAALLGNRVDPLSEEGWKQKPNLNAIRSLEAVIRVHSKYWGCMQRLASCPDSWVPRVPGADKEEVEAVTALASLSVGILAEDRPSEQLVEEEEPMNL

[9] = biological target: T7, Protein deacetylase HDAC6 (Homo sapiens) (UniProt Q9UBN7); assay: Inhibition of recombinant HDAC6 (unknown origin) using […] fluorogenic peptide as substrate at 50 uM incubated for 1 hr by microplate reader assay
T7 sequence (whole entry): T2 sequence (Q9UBN7 whole entry)

[10] = biological target: Heat shock protein HSP 90-alpha (Homo sapiens) (UniProt P07900); assay: Inhibition of recombinant HSP90 alpha (unknown origin) at 50 uM by fluorescence polarization competitive binding assay
[11] = biological target: T7, Protein deacetylase HDAC6 (Homo sapiens); assay: Inhibition of recombinant HDAC6 (unknown origin) using […] fluorogenic peptide as substrate at 5 uM incubated for 1 hr by microplate reader assay
[12] = biological target: T2, Protein deacetylase HDAC6; assay: Inhibition of full length human recombinant HDAC6 incubated for 30 to 60 mins by HDAC-Glo I/II assay
Histone deacetylase 2 [13] = biological target: T8, Histone deacetylase 2 (Homo sapiens, UniProt Q92769); assay: Inhibition of full length human recombinant HDAC2 incubated for 30 to 60 mins by HDAC-Glo I/II assay
Histone deacetylase 8 [14] = biological target: T3, Histone deacetylase 8; assay: Inhibition of full length human recombinant HDAC8 incubated for 30 to 60 mins by HDAC-Glo I/II assay
Histone deacetylase 11 [15] = biological target: T4, Histone deacetylase 11; assay: Inhibition of full length human recombinant HDAC11 incubated for 30 to 60 mins by HDAC-Glo I/II assay
Histone deacetylase 1 [16] = biological target: T1, Histone deacetylase 1; assay: Inhibition of full length human recombinant HDAC1 incubated for 30 to 60 mins by HDAC-Glo I/II assay
Histone deacetylase 3 [17] = biological target: T5, Histone deacetylase 3; assay: Inhibition of full length human recombinant HDAC3 incubated for 30 to 60 mins by HDAC-Glo I/II assay
[18] = biological target: T9, Polyamine deacetylase HDAC10 (Homo sapiens, UniProt Q969S8); assay: Inhibition of full length human recombinant HDAC10 incubated for 30 to 60 mins by HDAC-Glo I/II assay
T9 sequence (Q969S8 whole entry): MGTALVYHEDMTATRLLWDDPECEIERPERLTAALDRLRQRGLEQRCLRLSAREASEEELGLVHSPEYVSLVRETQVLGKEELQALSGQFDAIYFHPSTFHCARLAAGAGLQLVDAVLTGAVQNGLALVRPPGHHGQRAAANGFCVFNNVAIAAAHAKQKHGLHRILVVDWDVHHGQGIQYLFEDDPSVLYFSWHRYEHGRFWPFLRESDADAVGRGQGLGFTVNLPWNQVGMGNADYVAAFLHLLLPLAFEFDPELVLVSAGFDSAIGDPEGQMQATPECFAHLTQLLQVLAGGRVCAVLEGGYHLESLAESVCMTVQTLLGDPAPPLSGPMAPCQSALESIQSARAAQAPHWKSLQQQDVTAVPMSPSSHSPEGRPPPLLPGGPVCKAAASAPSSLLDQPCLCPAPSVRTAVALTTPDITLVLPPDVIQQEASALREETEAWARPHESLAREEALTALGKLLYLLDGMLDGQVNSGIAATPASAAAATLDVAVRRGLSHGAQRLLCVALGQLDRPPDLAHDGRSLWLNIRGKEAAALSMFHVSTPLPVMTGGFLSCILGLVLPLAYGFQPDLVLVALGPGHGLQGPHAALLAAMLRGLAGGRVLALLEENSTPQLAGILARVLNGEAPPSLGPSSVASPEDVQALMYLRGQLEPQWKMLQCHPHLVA

[19] = biological target: T9, Polyamine deacetylase HDAC10; assay: Inhibition of full length human recombinant HDAC10 expressed in baculovirus infected Sf9 cells using RHKKAc fluorogenic peptide as substrate incubated for 2 hrs
Histone deacetylase 3 [20] = biological target: T5, Histone deacetylase 3; assay: Inhibition of full length human recombinant HDAC3 expressed in baculovirus infected Sf9 cells using RHKKAc fluorogenic peptide as substrate incubated for 2 hrs
Histone deacetylase 2 [21] = biological target: T8, Histone deacetylase 2; assay: Inhibition of full length human recombinant HDAC2 expressed in baculovirus infected Sf9 cells using RHKKAc fluorogenic peptide as substrate incubated for 2 hrs
Histone deacetylase 1 [22] = biological target: T1, Histone deacetylase 1; assay: Inhibition of full length human recombinant HDAC1 expressed in baculovirus infected Sf9 cells using RHKKAc fluorogenic peptide as substrate incubated for 2 hrs
Histone deacetylase 3 [23] = biological target: T5, Histone deacetylase 3; assay: Inhibition of human recombinant HDAC3 incubated for 45 mins by microplate reader assay
Histone deacetylase 4 = Histone deacetylase 4 (Homo sapiens, UniProt P56524); assay: Inhibition of human recombinant HDAC4 incubated for 45 mins by microplate reader assay
Chain of Histone deacetylase 4 (P56524 whole entry): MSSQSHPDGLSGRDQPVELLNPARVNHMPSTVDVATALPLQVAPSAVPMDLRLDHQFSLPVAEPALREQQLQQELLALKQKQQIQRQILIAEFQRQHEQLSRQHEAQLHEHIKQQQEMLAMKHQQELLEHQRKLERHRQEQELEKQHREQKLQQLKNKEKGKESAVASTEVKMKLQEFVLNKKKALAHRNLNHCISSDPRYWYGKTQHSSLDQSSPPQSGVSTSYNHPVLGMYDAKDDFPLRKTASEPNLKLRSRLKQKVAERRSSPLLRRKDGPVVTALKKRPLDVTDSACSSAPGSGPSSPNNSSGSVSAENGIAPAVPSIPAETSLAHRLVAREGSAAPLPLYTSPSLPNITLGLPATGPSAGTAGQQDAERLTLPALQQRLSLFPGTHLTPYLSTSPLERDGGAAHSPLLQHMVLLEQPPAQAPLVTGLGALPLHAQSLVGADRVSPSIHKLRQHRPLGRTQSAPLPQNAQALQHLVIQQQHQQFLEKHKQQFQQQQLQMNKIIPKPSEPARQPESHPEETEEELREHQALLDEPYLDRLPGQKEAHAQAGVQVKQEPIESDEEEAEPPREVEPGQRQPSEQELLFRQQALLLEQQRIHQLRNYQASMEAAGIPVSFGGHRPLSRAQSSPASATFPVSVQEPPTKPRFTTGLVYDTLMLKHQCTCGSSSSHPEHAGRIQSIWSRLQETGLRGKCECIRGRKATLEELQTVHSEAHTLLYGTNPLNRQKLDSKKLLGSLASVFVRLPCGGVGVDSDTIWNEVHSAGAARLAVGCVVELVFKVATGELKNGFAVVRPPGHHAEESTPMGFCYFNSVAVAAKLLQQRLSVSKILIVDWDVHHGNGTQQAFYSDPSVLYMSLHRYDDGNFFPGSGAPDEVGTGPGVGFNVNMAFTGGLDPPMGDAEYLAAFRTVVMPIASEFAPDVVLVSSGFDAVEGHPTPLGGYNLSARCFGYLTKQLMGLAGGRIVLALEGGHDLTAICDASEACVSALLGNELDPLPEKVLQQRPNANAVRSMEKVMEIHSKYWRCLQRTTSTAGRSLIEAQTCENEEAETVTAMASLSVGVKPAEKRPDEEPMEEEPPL

T1 sequence (Q13547 whole entry): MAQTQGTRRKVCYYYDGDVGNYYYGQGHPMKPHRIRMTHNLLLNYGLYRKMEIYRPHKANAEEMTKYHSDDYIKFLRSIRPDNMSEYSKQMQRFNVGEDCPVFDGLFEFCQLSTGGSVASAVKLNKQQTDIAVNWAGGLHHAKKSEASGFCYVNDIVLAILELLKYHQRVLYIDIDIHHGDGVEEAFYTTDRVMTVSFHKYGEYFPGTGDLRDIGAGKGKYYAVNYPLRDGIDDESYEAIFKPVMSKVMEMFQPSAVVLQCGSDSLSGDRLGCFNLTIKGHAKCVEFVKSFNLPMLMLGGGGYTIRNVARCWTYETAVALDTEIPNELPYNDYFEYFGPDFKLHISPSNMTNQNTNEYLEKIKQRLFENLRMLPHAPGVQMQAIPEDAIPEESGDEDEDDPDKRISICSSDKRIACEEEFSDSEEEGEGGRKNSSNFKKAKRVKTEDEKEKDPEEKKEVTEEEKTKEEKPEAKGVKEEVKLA
T5 sequence (O15379 whole entry): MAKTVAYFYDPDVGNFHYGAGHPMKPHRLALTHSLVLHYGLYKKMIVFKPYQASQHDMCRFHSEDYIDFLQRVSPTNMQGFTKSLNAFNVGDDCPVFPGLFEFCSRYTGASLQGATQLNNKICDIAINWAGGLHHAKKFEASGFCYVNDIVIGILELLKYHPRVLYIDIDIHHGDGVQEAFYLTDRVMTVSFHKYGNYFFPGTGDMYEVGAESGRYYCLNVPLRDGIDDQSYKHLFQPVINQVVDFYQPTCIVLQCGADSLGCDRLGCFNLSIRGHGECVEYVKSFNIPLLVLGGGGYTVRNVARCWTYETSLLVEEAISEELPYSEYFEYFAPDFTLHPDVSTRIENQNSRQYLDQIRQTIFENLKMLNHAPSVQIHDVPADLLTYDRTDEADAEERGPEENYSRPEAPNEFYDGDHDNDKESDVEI
T8 sequence (Q92769 whole entry): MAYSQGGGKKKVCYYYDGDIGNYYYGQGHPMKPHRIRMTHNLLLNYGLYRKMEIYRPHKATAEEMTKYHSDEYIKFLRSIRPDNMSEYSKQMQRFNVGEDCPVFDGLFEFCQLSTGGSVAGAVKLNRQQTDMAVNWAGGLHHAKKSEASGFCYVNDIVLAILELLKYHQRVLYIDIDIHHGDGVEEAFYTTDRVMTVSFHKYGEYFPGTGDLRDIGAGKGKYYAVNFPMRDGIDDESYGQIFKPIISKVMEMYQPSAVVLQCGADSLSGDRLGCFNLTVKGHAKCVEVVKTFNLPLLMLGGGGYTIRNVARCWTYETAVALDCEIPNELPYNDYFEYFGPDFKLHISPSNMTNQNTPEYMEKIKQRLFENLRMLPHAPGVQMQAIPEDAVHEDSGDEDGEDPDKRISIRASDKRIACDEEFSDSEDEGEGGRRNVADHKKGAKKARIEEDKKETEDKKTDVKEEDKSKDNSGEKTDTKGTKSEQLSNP
Chain of Histone deacetylase 5 (Q9UQL6 whole entry): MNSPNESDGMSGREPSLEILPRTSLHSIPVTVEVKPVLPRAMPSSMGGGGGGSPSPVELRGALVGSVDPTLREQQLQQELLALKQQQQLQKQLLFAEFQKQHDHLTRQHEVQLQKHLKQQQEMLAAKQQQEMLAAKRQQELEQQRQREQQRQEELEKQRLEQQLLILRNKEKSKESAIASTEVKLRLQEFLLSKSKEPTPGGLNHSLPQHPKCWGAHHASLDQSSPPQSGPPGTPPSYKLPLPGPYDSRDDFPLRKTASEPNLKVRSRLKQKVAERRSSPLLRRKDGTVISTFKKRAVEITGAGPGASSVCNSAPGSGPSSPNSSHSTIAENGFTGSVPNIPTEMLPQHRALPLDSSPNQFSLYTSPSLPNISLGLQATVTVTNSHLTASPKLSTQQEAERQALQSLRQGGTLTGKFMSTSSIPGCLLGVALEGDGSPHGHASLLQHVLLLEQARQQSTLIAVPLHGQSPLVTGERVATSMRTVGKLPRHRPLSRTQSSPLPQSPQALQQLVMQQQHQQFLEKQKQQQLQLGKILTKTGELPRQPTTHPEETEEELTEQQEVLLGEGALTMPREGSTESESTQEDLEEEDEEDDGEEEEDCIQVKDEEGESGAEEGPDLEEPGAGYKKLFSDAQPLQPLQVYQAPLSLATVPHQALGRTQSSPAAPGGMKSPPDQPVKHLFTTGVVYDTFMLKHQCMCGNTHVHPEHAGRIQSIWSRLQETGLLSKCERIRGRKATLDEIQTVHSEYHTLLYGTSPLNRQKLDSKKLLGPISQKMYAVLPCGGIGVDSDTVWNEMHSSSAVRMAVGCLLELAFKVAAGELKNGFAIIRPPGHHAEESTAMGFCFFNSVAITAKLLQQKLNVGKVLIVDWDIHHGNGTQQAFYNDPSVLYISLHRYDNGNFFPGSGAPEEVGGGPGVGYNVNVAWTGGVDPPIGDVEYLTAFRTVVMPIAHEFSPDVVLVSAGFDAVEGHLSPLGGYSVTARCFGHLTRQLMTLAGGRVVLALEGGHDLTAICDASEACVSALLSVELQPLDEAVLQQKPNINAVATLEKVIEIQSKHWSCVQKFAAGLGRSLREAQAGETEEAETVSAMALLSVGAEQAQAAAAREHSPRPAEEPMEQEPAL

SMILES: CCN(CC)Cc1ccc(Cn2c(=O)c(OCc3ccc(C(=O)NO)cc3)c(-c3ccccc3)c3ccccc32)cc1
- pIC50 (Histone deacetylase 1 [1]): 6.49
- pIC50 [2]: 8.16

SMILES: O=S(=O)(N1CCN(C2COC2)CC1)N(Cc1ccc(-c2nnc(C(F)(F)F)o2)cn1)c1ccc(F)c(Cl)c1
- pIC50 [3]: 7.85

SMILES: CCCC1=C(Nc2ccc(C(=O)NO)cc2)C2N=CC=CC2=N1 (stereo not drawn)
- pIC50 [4]: 7.24
- pIC50 (Histone deacetylase 1 [5]): 5.66

SMILES: O=C(NO)c1ccc(CN2CCCc3cc(Cl)ccc32)cc1
- pIC50 (Histone deacetylase 8 [6]): 5.43
- pIC50 (Histone deacetylase 5): 5.39
- pIC50 (Histone deacetylase 11 [7]): 5.24
- pIC50 (Histone deacetylase 3 [8]): 4.53
- pIC50 (Histone deacetylase 7): 5.34

SMILES: Cc1nc(N)nc(COC(=O)c2cccc(-c3cc(C(F)(F)F)on3)c2)n1
- inhibition [9]: 62%
- inhibition [10]: 32%
- inhibition [11]: 53%

SMILES: COc1ccc2c3c(cccc13)C(=O)N(Cc1ccc(C(=O)NO)cc1)C2=O
- pIC50 [12]: 10.00
- pIC50 (Histone deacetylase 2 [13]): 6.79
- pIC50 (Histone deacetylase 8 [14]): < 4.52
- pIC50 (Histone deacetylase 11 [15]): < 4.52
- pIC50 (Histone deacetylase 1 [16]): 6.97
- pIC50 (Histone deacetylase 3 [17]): 7.19
- pIC50 [18]: 6.43

SMILES: CC(C)(C)OC(=O)Nc1cccc(-c2cc(C(=O)NCCc3cc(C(=O)NO)no3)no2)c1
- pIC50 [19]: < 4.30
- pIC50 (Histone deacetylase 3 [20]): < 4.30
- pIC50 (Histone deacetylase 2 [21]): < 4.30
- pIC50 (Histone deacetylase 1 [22]): < 4.30

SMILES: CCN(CC)Cc1ccc(Cn2c(=O)c(OCc3ccc(C(=O)NO)cc3)c(-c3cccnc3)c3ccccc32)cc1
- pIC50 (Histone deacetylase 1 [1]): 6.50
- pIC50 [2]: 7.94

SMILES: O=C(NO)c1ccc(CC(=O)N(CCO)c2ccccc2)cc1
- pIC50 (Histone deacetylase 3 [23]): < 5.00
- pIC50 (Histone deacetylase 4): 5.77
